{"source": "patent US7067619B2", "about": "“Integrin-binding peptides” (La Jolla Cancer Research Foundation, priority 1993, dated 2006)", "key": {"αvβ5 integrin": {"molecular_target": "αvβ5 integrin (Homo sapiens, UniProt P06756+P18084)", "sequence (P06756 31-889 limits assumed)": "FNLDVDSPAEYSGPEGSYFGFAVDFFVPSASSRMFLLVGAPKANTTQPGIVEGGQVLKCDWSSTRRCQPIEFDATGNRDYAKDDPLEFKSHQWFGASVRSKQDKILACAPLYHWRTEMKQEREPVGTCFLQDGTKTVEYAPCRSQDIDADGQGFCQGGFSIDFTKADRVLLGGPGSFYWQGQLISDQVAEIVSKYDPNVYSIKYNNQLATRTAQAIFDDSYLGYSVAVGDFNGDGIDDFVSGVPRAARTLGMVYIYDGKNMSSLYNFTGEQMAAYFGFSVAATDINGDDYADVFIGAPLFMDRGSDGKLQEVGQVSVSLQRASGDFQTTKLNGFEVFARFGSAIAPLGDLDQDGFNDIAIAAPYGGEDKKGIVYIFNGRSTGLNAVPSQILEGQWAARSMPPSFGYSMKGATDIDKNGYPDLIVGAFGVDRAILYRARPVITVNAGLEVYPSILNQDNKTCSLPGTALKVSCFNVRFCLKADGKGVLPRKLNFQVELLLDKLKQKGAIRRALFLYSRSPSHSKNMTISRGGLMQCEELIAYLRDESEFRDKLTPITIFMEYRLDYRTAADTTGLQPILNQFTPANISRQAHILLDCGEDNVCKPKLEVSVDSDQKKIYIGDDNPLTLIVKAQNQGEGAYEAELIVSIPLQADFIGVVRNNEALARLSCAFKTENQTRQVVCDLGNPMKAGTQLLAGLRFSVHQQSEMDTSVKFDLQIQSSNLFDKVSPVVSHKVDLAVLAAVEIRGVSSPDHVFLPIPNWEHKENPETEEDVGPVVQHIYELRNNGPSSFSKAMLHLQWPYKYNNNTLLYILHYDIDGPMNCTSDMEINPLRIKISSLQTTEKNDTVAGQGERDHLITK", "sequence (P06756 891-1048 partner limits assumed)": "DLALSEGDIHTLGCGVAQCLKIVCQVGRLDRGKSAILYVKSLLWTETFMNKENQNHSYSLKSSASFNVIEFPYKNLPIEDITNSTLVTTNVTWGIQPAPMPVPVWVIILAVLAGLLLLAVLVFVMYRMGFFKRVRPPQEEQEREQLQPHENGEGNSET", "sequence (P18084 24-799)": "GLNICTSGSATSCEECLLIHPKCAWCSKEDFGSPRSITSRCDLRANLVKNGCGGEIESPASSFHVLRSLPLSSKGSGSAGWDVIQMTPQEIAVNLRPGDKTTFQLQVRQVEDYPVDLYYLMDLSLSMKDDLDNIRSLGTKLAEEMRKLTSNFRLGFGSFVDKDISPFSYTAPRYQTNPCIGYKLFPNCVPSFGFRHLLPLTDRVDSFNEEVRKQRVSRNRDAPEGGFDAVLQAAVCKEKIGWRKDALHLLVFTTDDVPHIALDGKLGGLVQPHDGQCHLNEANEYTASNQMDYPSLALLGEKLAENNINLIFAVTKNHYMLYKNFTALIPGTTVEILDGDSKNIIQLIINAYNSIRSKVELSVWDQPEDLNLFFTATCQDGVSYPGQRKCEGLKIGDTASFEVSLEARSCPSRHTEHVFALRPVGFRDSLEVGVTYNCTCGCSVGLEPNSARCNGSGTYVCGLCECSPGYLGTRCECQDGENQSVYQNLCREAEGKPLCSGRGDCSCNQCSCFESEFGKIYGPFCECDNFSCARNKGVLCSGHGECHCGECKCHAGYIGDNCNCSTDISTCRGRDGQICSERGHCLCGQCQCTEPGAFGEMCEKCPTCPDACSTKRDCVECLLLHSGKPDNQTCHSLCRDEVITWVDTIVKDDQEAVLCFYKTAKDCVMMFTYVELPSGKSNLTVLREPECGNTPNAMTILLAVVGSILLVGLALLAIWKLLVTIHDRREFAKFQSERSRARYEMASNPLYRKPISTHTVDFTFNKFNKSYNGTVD", "assay": "Panning and binding of peptide-displaying phage on αvβ5 integrin", "parameters": "The αvβ3, αvβ5 and α5β1 integrins were isolated from human placental extracts; from tissue; host or cells: human placenta", "text": "(§1) In addition, most of the phage-binding activity in the αvβ3 preparation was captured into microliter wells coated with antibodies against the αv or β3 subunits as described previously (Koivunen et al., J. Biol. Chem., 268:20205–10 (1993). The αIIbβ3 integrin was isolated from outdated platelets (Pytela et al., Science, 231:1559–1562 (1986)).\n(§2) Peptide libraries were constructed in fuse 5 vector (Scott and Smith, Science 249:386–390 (1990)) as described previously (Koivunen et al., J. Cell Biol., 124:373–380 (1994). The CX5C, CX6C, CX7C and CX9 [SEQ ID NOs:39–42, respectively] libraries were prepared using synthetic oligonucleotides containing core sequences TGT(NNK)5TGT, TGT(NNK)6TGT, TGT(NNK)7TGT and TGT(NNK)9 [SEQ ID NOS:43–46, respectively] (N=equal molar mixture of A, C, G, T; K=G or T), respectively. The oligonucleotides were made double-stranded by PCR amplification with 5 cycles, purified and ligated to the N-terminus of pIII gene of fuse 5 vector. […]\n(§3) Binding of individual cloned phage to integrins was studied in microliter wells as described in Koivunen et al., J. Cell. […] Phage that were bound were determined by their ability to infect F-pilus positive K91kan bacteria. Bacteria were grown overnight in microliter wells in the presence of tetracycline and the absorbance indicative of bacterial growth was read at 600 nm with an ELISA plate reader."}, "α5β1 integrin": {"molecular_target": "T1, α5β1 integrin (Homo sapiens, UniProt P05556+P08648)", "T1 construct": "The αvβ3, αvβ5 and α5β1 integrins were isolated from human placental extracts; from tissue; host or cells: human placenta", "T1 sequence (P08648 42-894 limits assumed)": "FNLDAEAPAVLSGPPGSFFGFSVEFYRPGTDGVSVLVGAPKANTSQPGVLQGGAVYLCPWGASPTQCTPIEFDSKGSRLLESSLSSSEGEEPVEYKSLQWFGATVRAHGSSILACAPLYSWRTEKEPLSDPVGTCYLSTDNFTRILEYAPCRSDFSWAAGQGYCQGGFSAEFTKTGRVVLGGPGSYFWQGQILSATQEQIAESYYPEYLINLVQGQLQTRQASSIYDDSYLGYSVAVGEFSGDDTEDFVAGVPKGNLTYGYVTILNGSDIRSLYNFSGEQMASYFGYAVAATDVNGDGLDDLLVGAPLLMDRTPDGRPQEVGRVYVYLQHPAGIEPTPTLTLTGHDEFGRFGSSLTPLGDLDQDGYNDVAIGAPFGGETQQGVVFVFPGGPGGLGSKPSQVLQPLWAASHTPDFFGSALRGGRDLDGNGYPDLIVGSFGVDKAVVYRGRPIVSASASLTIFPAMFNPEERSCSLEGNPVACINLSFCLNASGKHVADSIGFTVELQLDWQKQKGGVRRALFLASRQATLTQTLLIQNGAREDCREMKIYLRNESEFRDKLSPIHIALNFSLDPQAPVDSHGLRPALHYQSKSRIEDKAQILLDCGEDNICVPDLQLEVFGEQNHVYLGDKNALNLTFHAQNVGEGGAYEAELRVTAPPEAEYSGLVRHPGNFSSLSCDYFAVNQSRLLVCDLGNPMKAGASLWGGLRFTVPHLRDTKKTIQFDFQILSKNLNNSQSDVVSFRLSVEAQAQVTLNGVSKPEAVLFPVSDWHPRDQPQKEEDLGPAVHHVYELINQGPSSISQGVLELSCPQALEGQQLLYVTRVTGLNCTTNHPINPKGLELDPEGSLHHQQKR", "T1 sequence (P08648 895-1049 partner limits assumed)": "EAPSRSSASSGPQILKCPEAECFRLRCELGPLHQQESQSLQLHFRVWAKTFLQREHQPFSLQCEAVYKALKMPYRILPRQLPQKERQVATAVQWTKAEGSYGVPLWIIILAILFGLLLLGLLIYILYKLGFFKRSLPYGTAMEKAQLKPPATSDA", "T1 sequence (P05556 21-798)": "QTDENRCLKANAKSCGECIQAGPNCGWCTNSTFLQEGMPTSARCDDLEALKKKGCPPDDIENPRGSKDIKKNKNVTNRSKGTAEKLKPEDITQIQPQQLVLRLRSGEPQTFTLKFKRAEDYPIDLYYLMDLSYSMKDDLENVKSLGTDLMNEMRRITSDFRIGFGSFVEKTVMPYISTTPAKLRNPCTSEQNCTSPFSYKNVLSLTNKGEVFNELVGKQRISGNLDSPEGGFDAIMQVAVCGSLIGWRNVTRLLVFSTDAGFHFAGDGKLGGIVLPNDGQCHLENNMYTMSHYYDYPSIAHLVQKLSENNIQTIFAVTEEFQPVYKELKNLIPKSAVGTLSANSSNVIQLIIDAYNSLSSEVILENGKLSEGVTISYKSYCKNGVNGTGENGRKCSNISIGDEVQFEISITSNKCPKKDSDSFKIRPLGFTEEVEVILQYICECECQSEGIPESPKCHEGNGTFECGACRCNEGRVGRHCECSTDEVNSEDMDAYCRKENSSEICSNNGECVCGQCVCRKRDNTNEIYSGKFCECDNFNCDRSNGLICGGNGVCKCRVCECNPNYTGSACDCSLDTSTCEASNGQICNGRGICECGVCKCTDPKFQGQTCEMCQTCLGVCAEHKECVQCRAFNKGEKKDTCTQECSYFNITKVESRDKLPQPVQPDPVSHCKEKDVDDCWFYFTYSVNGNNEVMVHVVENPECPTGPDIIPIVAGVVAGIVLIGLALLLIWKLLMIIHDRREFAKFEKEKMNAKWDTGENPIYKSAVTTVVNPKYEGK", "assay": "Inhibition of 125I-fibronectin binding to α5β1 integrin by competing peptides", "settings": "1 hour, compared with cyclic CRGDC peptide, FIG. 1", "experimental": "as §1\nThe α5β1 integrin was bound to α5 specific antibody-coated wells by incubating 300 μl of a placental extract per well in TBS buffer containing 0.1 M octylglucoside, 1 mM CaCl2, 1 mM MnCl2 and proteinase inhibitors overnight at 4° C., (Koivunen et al., J. Biol. Chem., 268: 20205–20210 (1993). Alternatively, the α5β1 integrin was directly coated on plastic as described above.\nThe wells were extensively washed with TBS containing 0.1% NP-40. ^125I-labeled fibronectin (100,000 cpm per well) was incubated in the presence of competing peptides for 1 hour at 25° C. in 100 μl volume of TBS containing 0.1% NP-40 and 1 mM MnCl2, as described by Koivunen et al., J. Biol. Chem. 268: 20205–20210 (1993). After repeated washing, the bound radioactivity was quantitated with a gamma counter.\nInitially, […] [SEQ ID NO:12] was examined for its ability to inhibit binding of fibronectin, which is the natural ligand for α5β1. […] Following incubation, the wells were washed and bound radioactivity was determined with a gamma counter."}, "αvβ3 integrin": {"molecular_target": "αvβ3 integrin (Homo sapiens, UniProt P05106+P06756)", "sequence (P06756 31-889 limits assumed)": "as the sequence (P06756 31-889 limits assumed) above", "sequence (P06756 891-1048 partner limits assumed)": "as the sequence (P06756 891-1048 partner limits assumed) above", "sequence (P05106 27-788)": "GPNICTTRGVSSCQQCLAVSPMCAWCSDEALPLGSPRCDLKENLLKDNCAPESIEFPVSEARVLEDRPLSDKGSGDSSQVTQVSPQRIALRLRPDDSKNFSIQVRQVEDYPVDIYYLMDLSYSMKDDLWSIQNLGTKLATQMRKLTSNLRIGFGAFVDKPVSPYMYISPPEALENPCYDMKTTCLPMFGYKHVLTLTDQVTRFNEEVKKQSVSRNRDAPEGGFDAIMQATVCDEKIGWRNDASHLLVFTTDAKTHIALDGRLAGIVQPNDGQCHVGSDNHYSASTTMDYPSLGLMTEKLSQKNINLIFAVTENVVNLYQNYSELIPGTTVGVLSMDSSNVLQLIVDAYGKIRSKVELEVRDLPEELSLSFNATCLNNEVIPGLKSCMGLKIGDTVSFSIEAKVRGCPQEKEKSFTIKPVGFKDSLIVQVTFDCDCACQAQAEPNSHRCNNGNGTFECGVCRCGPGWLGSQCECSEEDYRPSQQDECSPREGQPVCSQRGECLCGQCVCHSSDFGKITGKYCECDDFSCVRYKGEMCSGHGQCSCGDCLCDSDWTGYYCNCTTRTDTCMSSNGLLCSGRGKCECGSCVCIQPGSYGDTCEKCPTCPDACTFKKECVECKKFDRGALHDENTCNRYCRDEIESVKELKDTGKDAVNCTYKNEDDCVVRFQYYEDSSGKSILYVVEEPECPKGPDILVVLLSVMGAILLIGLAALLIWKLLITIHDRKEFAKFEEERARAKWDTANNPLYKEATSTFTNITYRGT", "assay": "Panning and binding of peptide-displaying phage on αvβ3 integrin", "parameters": "The αvβ3, αvβ5 and α5β1 integrins were isolated from human placental extracts; from tissue; host or cells: human placenta", "settings": "phage-displayed sequence", "text": "as §1, §2, §3"}}, "note": "Bridge positions count the residues as written; N and C are the ends. Ends that are not written are not given here. Peptide text beside a SMILES is read from it.", "data": [{"compound": "C[C@H](N)C(=O)N[C@H]1CSSC[C@@H](C(=O)NCC(=O)O)NC(=O)[C@H](Cc2ccccc2)NC(=O)[C@@H]2CSSC[C@H](NC(=O)[C@H](CC(=O)O)NC1=O)C(=O)N[C@@H](CCCNC(=N)N)C(=O)NCC(=O)N[C@@H](CC(=O)O)C(=O)N2", "note": "(H-ACDCRGDCFCG-OH; disulfide 2-10, 4-8)", "values": [{"measurement": "integrin preference of phage expressing the peptide", "setting": "αvβ5 integrin; phage attachment experiments", "result": "bound preferentially to the αvβ5 integrin"}, {"measurement": "binding of peptide-displaying phage to the αvβ5 integrin", "setting": "αvβ5 integrin; phage-displayed sequence", "result": "bound strongly"}]}, {"compound": "GACRRETAWACGA", "values": [{"measurement": "inhibition of fibronectin binding to α5β1", "setting": "α5β1 integrin", "result": "equally as well as the cyclic CRGDC"}]}, {"compound": "A*CPSRLDSPC*G (ACPSRLDSPCG; disulfide 2-10 (inferred))", "values": [{"measurement": "binding of peptide-displaying phage to the αvβ3 integrin", "setting": "αvβ3 integrin", "result": "bound to αvβ3"}]}]}
